Assay results published in patent publication US20230257367A1, “NOVEL THYROID HORMONE BETA RECEPTOR AGONIST” (Chengdu Kanghong Pharmaceutical Co., Ltd., priority 2020, published 2023).
Like-named read-outs stand apart in the source and are kept apart here.

What was measured:
TRβ = target: T1, TRβ (Homo sapiens, UniProt P10828); assay: In vitro TRβ cell transfection experiment (GAL4 luciferase reporter, HEK293T); format: cell-based
T1 construct: host or cells: HEK293T
T1 sequence (P10828 217-461 limits assumed): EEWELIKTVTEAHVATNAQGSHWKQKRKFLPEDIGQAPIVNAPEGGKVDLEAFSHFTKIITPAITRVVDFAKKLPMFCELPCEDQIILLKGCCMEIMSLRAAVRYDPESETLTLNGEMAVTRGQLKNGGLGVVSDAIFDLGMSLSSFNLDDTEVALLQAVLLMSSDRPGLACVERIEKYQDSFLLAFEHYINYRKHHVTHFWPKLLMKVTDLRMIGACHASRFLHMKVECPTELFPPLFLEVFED
T1 sequence (P19793 227-458 partner limits assumed): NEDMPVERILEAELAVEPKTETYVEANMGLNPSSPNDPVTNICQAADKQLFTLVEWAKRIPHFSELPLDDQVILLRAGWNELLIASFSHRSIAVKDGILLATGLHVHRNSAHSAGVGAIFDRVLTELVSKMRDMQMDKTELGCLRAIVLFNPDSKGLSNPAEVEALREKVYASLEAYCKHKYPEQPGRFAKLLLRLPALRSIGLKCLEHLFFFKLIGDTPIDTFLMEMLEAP

TRα-LBD/RXRα = target: T2, TRα-LBD/RXRα (Homo sapiens, UniProt P10827); assay: In vitro binding experiment (TR-FRET SRC2-2 co-activator peptide recruitment), TRα; format: biochemical; settings: 4 h incubation at room temperature
T2 construct: TRα-LBD (Invitrogen, PV4762), or TRβ-LBD (Invitrogen, PV4764) with a GST tag were used; purchased Invitrogen (TRα-LBD); Pharmaron (RXRα) PV4762

TRβ-LBD/RXRα = target: T3, TRβ-LBD/RXRα (Homo sapiens, UniProt P10828); assay: In vitro binding experiment (TR-FRET SRC2-2 co-activator peptide recruitment), TRβ; format: biochemical; settings: 4 h incubation at room temperature
T3 construct: TRβ-LBD (Invitrogen, PV4764) with a GST tag were used; purchased Invitrogen (TRβ-LBD); Pharmaron (RXRα) PV4764

TRα = target: T4, TRα (Homo sapiens, UniProt P10827); assay: In vitro TRα cell transfection experiment (GAL4 luciferase reporter, HEK293T); format: cell-based
T4 construct: host or cells: HEK293T
T4 sequence (P10827 1-410 isoform P10827-2): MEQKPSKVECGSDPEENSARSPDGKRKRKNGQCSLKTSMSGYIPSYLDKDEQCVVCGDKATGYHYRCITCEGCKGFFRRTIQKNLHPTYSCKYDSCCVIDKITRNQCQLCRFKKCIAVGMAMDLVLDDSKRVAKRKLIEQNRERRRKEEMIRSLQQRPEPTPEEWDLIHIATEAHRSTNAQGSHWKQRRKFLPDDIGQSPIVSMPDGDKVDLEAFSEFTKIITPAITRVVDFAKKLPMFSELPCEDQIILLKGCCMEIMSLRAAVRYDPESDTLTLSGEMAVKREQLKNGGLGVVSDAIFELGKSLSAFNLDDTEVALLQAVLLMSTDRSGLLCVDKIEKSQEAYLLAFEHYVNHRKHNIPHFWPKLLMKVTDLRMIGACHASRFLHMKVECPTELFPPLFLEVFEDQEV
T4 sequence (P19793 227-458 partner limits assumed): T1 sequence (P19793 227-458 partner limits assumed)

[1] = PK experiment of cynomolgus monkeys; format: in vivo; settings: cynomolgus monkey, plasma; for AUC(0-t): read-out: Area under the curve AUC(0-t) in the case of administration; for Cmax: read-out: Peak concentration Cmax
Text: The purpose of this experiment was to evaluate the pharmacokinetic behavior of the compound to be tested after single intravenous and intragastric administration, and to study the bioavailability after intragastric administration, providing animal experimental data for clinical studies.
Preparation of solutions for intravenous injection and intragastric administration: an appropriate amount of compound to be tested was accurately weighed, and mixed with a suitable solvent (5 vol % DMSO+10 vol % polyethylene glycol−15-hydroxystearate+85 vol % normal saline). After vortex, or ultrasound processing, a clear and transparent solution (the solution for intravenous injection administration), or a uniform suspension was obtained. The solution administrated by intravenous injection needed to be filtered through a 0.22 μm filter membrane
Experimental design: before the first dose the cynomolgus monkeys were divided into 2 groups by body weight with 3 male cynomolgus monkeys in each group, where animals in group 1 were given the compound to be tested (1 mg/kg) by single intravenous injection (IV); and animals in the 2rd group were administrated with the compound to be tested (5 mg/kg) by single intragastric administration (PO). The animals were weighed before administration, and dosages were calculated based on the weights of the animals.
Sample collection: a whole blood sample (about 0.2 mL) was collected at a specified time by venipuncture of an upper limb (or other suitable blood collection sites), and the actual blood collection time was recorded in test records. The acceptable error for one acquisition time point within 1 hour after administration is ±1 minute, and the acceptable error for other time points is ±5% of the theoretical time. All blood samples were immediately transferred to a labeled commercial centrifuge tube containing K2-EDTA. After blood sample collection, the blood sample was centrifuged at 4° C. and 3,200 g for 10 minutes, the supernatant plasma was sucked, quickly put in dry ice, and kept in a refrigerator at −70±10° C. for LC-MS/MS analysis. The collection time of both groups was 0.083 hour, 0.25 hour, 0.5 hour, 1 hour, 2 hours, 4 hours, 8 hours and 24 hours after administration.
Data processing: Area under the curve (AUC(0-t) and AUC(0-∞)), elimination half-life (T½), peak concentration (Cmax), time to reach maximum plasma concentration (Tmax), etc., were calculated by the non-compartment analysis module in Phoenix WinNonlin 7.0.

T2 sequence (P19793 whole entry partner, other chains not shown, the tested form may be a part): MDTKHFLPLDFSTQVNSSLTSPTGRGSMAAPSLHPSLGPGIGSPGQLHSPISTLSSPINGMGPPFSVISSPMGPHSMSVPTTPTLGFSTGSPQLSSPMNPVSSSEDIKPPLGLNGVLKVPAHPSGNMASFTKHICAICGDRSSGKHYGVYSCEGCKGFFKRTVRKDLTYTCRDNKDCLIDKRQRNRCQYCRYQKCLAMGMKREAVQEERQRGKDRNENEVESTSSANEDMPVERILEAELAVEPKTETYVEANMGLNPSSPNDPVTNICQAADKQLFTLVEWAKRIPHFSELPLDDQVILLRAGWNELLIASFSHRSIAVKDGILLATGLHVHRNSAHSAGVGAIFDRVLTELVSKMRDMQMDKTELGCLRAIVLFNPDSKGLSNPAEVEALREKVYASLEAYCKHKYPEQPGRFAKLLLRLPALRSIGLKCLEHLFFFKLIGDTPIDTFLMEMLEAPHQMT
T3 sequence (P19793 whole entry partner, other chains not shown, the tested form may be a part): as above

Compound	EC50 (TRβ) [µM]	EC50 (TRα-LBD/RXRα) [µM]	EC50 (TRβ-LBD/RXRα) [µM]	EC50 (TRα) [µM]	half-life ([1]; IV, 1 mg/kg, single dose, male cynomolgus monkeys, read-out: Half-life period (T1/2) (converted)) [h]	bioavailability ([1]; male, PO 5 mg/kg vs IV 1 mg/kg, read-out: Bioavailability (F)) [%]	AUC(0-t) ([1]; male, IV, 1 mg/kg, single dose) [ng·h/mL]	Cmax ([1]; male, IV, 1 mg/kg, single dose) [ng/mL]	AUC(0-t) ([1]; male, PO, 5 mg/kg, single dose) [ng·h/mL]	Cmax ([1]; male, PO, 5 mg/kg, single dose) [ng/mL]
N#Cc1nn(-c2cc(Cl)c(Oc3ncc(O)c(Cc4ccccc4)n3)c(Cl)c2)c(=O)[nH]c1=O [KH09]	–	1.88	0.066	–	–	–	–	–	–	–
CC(C)c1nc(Sc2c(Cl)cc(-n3nc(C#N)c(=O)[nH]c3=O)cc2Cl)ncc1O [KH17]	–	0.385	0.021	–	–	–	–	–	–	–
[2H]C([2H])([2H])C(c1nc(Oc2c(Cl)cc(-n3nc(C#N)c(=O)[nH]c3=O)cc2Cl)ncc1O)C([2H])([2H])[2H] [KH15]	0.205	0.194	0.014	1.46	–	–	–	–	–	–
CC(C)c1nc(Oc2c(Cl)cc(-n3ncc(=O)[nH]c3=O)c3c2CCC3)ncc1O [KH14]	0.148	0.102	0.105	0.383	–	–	–	–	–	–
CC(C)c1nc(Oc2c(Cl)cc(-n3nc(C#N)c(=O)[nH]c3=O)c3c2CCC3)ncc1O [KH13]	1.13	0.132	0.054	2.74	–	–	–	–	–	–
CC(C)c1nc(Oc2c(Cl)cc(NCC(=O)O)cc2Cl)ncc1O [KH04]	1.28	0.133	0.113	2.49	–	–	–	–	–	–
CC(C)c1nc(Oc2c(Cl)cc(NCP(=O)(O)O)cc2Cl)ncc1O [KH02]	–	–	1.06	–	–	–	–	–	–	–
CC(C)c1nc(Sc2c(Cl)cc(-n3ncc(=O)[nH]c3=O)cc2Cl)ncc1O [KH18]	0.007	0.188	0.011	0.028	–	–	–	–	–	–
CC(C)c1nc(Oc2c(Cl)cc(-n3nc(C#N)c(=O)[nH]c3=O)c3c2CCO3)ncc1O [KH07]	0.208	0.31	0.048	0.964	–	–	–	–	–	–
[2H]C([2H])([2H])C(c1nc(Oc2c(Cl)cc(-n3ncc(=O)[nH]c3=O)cc2Cl)ncc1O)C([2H])([2H])[2H] [KH16]	0.019	0.106	0.012	0.138	–	–	–	–	–	–

The next lines start with the values.

EC50 (TRβ) [µM]	EC50 (TRα-LBD/RXRα) [µM]	EC50 (TRβ-LBD/RXRα) [µM]	EC50 (TRα) [µM]	half-life ([1]; IV, 1 mg/kg, single dose, male cynomolgus monkeys, read-out: Half-life period (T1/2) (converted)) [h]	bioavailability ([1]; male, PO 5 mg/kg vs IV 1 mg/kg, read-out: Bioavailability (F)) [%]	AUC(0-t) ([1]; male, IV, 1 mg/kg, single dose) [ng·h/mL]	Cmax ([1]; male, IV, 1 mg/kg, single dose) [ng/mL]	AUC(0-t) ([1]; male, PO, 5 mg/kg, single dose) [ng·h/mL]	Cmax ([1]; male, PO, 5 mg/kg, single dose) [ng/mL]	Compound
0.5	0.008	0.001	1.17	–	–	–	–	–	–	CC(C)c1nc(Oc2c(Cl)cc(NC(=O)C(=O)O)cc2Cl)ncc1O [KHE021]
–	0.22	0.029	–	–	–	–	–	–	–	CCC(CC)c1nc(Oc2c(Cl)cc(-n3ncc(=O)[nH]c3=O)cc2Cl)ncc1O [KHE010]
–	2.38	0.254	–	–	–	–	–	–	–	N#Cc1nn(-c2cc(Cl)c(Oc3ncc(O)c(C4CC(F)(F)C4)n3)c(Cl)c2)c(=O)[nH]c1=O [KHE019]
0.074	0.258	0.04	0.507	–	–	–	–	–	–	CCC(CC)c1nc(Oc2c(Cl)cc(-n3nc(C#N)c(=O)[nH]c3=O)cc2Cl)ncc1O [KHE009]
–	–	–	–	1.45	8.47	3900	11200	1650	430	CC(C)c1cc(Oc2c(Cl)cc(-n3nc(C#N)c(=O)[nH]c3=O)cc2Cl)n[nH]c1=O [MGL3196, reference compound]
0.102	0.346	0.04	0.407	–	–	–	–	–	–	O=c1cnn(-c2cc(Cl)c(Oc3ncc(O)c(C4CC4)n3)c(Cl)c2)c(=O)[nH]1 [KHE018]
0.88	0.737	0.077	3.31	–	–	–	–	–	–	N#Cc1nn(-c2cc(Cl)c(Oc3ncc(O)c(C4CC4)n3)c(Cl)c2)c(=O)[nH]c1=O [KHE017]
0.008	4.54	0.067	0.049	–	–	–	–	–	–	O=c1cnn(-c2cc(Cl)c(Oc3ncc(O)c(CC4CCCCC4)n3)c(Cl)c2)c(=O)[nH]1 [KHE008]
0.004	0.272	0.003	0.039	–	–	–	–	–	–	O=c1cnn(-c2cc(Cl)c(Oc3ncc(O)c(Cc4ccc(F)cc4)n3)c(Cl)c2)c(=O)[nH]1 [KHE002]
–	0.573	0.746	–	–	–	–	–	–	–	CC(C)c1nc(Oc2c(Cl)cc(-c3noc(=O)[nH]3)cc2Cl)ncc1O [KHE003]
0.258	0.418	0.007	0.563	–	–	–	–	–	–	N#Cc1nn(-c2cc(Cl)c(Oc3ncc(O)c(Cc4ccc(F)cc4)n3)c(Cl)c2)c(=O)[nH]c1=O [KHE001]
0.227	5.12	0.089	0.528	–	–	–	–	–	–	N#Cc1nn(-c2cc(Cl)c(Oc3ncc(O)c(CC4CCCCC4)n3)c(Cl)c2)c(=O)[nH]c1=O [KHE007]
